One test has as its target CK1ε (Homo sapiens (Human), UniProt P49674). The experiment in a line: CK1ε kinase assay (Caliper LABCHIP electrophoretic separation of fluoresceinated peptide substrate and product). Format: biochemical. The following applies: 200 pM enzyme, 50 μM ATP, 22 hours at room temperature. In a few lines:
(§1)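 Eleven-concentration compound series in kinase reactions run for 22 hours at room temperature. Terminated with EDTA, with product conversion read by electrophoretic separation. Non-linear regression gave IC50.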

In the next test the target is CK1δ (Homo sapiens (Human), UniProt P48730). The test can be described thus: CK1δ kinase assay (Caliper LABCHIP electrophoretic separation of fluoresceinated peptide substrate and product). Format: biochemical. As to conditions: 200 pM enzyme, 50 μM ATP, 22 hours at room temperature. A digest of the protocol:
as §1

CK1δ, sequence (P48730 whole entry): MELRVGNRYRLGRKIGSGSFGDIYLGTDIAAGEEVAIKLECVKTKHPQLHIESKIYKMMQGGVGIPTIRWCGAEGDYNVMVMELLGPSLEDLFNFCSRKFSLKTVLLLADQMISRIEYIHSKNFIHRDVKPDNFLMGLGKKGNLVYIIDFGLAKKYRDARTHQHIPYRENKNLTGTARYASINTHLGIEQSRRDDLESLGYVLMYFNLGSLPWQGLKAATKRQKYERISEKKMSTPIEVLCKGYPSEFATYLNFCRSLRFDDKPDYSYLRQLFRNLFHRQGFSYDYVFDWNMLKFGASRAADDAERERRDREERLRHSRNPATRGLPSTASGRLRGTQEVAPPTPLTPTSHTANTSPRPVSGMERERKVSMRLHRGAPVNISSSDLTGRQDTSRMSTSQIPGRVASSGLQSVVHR
CK1ε, sequence (P49674 whole entry): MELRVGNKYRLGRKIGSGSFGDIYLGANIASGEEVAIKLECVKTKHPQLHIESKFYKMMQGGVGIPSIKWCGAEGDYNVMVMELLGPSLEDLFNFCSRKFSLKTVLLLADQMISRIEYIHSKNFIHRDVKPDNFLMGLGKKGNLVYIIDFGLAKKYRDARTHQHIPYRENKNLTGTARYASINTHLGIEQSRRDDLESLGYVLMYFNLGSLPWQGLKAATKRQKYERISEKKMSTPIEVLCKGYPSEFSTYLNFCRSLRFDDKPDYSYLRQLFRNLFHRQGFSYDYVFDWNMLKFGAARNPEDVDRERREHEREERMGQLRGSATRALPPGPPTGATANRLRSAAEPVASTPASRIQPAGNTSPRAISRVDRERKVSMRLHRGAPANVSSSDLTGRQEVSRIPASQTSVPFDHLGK

On to `COC(=O)N1CCC(n2cnc(-c3ccc(F)cc3)c2-c2ccc3nc(NC(=O)c4ccnc(F)c4)cn3n2)CC1` [Compound 84, methyl 4-(5-(2-(2-fluoroisonicotinamido)imidazo[1,2-b]pyridazin-6-yl)-4-(4-fluorophenyl)-1H-imidazol-1-yl)piperidine-1-carboxylate], for which the values for the IC50 against CK1ε and at CK1δ were 0.967 nM and 0.179 nM, respectively.

For `O=C(Nc1cn2nc(-c3c(-c4ccc(F)cc4)ncn3C3CCN(C(=O)OCC(F)(F)F)CC3)ccc2n1)c1ccnc(F)c1` [Compound 85, 2,2,2-trifluoroethyl 4-(5-(2-(2-fluoroisonicotinamido)imidazo[1,2-b]pyridazin-6-yl)-4-(4-fluorophenyl)-1H-imidazol-1-yl)piperidine-1-carboxylate], the values for the IC50 on CK1ε and on CK1δ were 2.34 nM and 0.309 nM, respectively.

In the case of `O=C(Nc1cn2nc(-c3c(-c4ccc(F)cc4)ncn3C3CCN(C(=O)OCc4ccon4)CC3)ccc2n1)c1ccnc(F)c1` [Compound 86, isoxazol-3-ylmethyl 4-(5-(2-(2-fluoroisonicotinamido)imidazo[1,2-b]pyridazin-6-yl)-4-(4-fluorophenyl)-1H-imidazol-1-yl)piperidine-1-carboxylate], the IC50 (as a rule, the concentration that gives 50% inhibition) against CK1ε was found to be 0.851 nM; on CK1δ it was 0.286 nM.

Take `O=C(Nc1cn2nc(-c3c(-c4ccc(F)cc4)ncn3C3CCNCC3)ccc2n1)c1cc(F)nc(F)c1` [Compound 87, 2,6-difluoro-N-(6-(4-(4-fluorophenyl)-1-(piperidin-4-yl)-1H-imidazol-5-yl)imidazo[1,2-b]pyridazin-2-yl)isonicotinamide]: the results for the IC50 on CK1ε and against CK1δ were 1.05 nM and 0.402 nM, respectively.

`O=C(Nc1cn2nc(-c3c(-c4ccc(F)cc4)ncn3C3CCN(CCCF)CC3)ccc2n1)c1cc(F)nc(F)c1` [Compound 88, 2,6-difluoro-N-(6-(4-(4-fluorophenyl)-1-(1-(3-fluoropropyl)piperidin-4-yl)-1H-imidazol-5-yl)imidazo[1,2-b]pyridazin-2-yl)isonicotinamide]: the figures for the IC50 on CK1ε and on CK1δ were 2.56 nM and 0.38 nM, respectively.

Consider `NC(=O)CN1CCC(n2cnc(-c3ccc(F)cc3)c2-c2ccc3nc(NC(=O)c4cc(F)nc(F)c4)cn3n2)CC1` [Compound 89, N-(6-(1-(1-(2-amino-2-oxoethyl)piperidin-4-yl)-4-(4-fluorophenyl)-1H-imidazol-5-yl)imidazo[1,2-b]pyridazin-2-yl)-2,6-difluoroisonicotinamide], for which the IC50 against CK1ε was 1.09 nM; at CK1δ, 0.146 nM.

In the case of `O=C(Nc1cn2nc(-c3c(-c4ccc(F)cc4)ncn3C3CCN(C[C@@H](O)C(F)(F)F)CC3)ccc2n1)c1cc(F)nc(F)c1` [Compound 90, (R)-2,6-difluoro-N-(6-(4-(4-fluorophenyl)-1-(1-(3,3,3-trifluoro-2-hydroxypropyl)piperidin-4-yl)-1H-imidazol-5-yl)imidazo[1,2-b]pyridazin-2-yl)isonicotinamide], the IC50 amounted to 5.68 nM against CK1ε and 0.65 nM against CK1δ.

As to `O=C(Nc1cn2nc(-c3c(-c4ccc(F)cc4)ncn3C3CCN(C[C@H](O)C(F)(F)F)CC3)ccc2n1)c1cc(F)nc(F)c1` [Compound 91, (S)-2,6-difluoro-N-(6-(4-(4-fluorophenyl)-1-(1-(3,3,3-trifluoro-2-hydroxypropyl)piperidin-4-yl)-1H-imidazol-5-yl)imidazo[1,2-b]pyridazin-2-yl)isonicotinamide], the IC50 on CK1ε stood at 0.796 nM; against CK1δ it was 0.296 nM.

For the compound `O=C(Nc1cn2nc(-c3c(-c4ccc(F)cc4)ncn3C3CCN(CCC(F)(F)F)CC3)ccc2n1)c1cc(F)nc(F)c1` [Compound 92, 2,6-difluoro-N-(6-(4-(4-fluorophenyl)-1-(1-(3,3,3-trifluoropropyl)piperidin-4-yl)-1H-imidazol-5-yl)imidazo[1,2-b]pyridazin-2-yl)isonicotinamide], the figures for the IC50 against CK1ε and against CK1δ were 7.88 nM and 1.45 nM, respectively.

As to `O=C(Nc1cn2nc(-c3c(-c4ccc(F)cc4)ncn3C3CCN(C(=O)c4ccon4)CC3)ccc2n1)c1cc(F)nc(F)c1` [Compound 93, 2,6-difluoro-N-(6-(4-(4-fluorophenyl)-1-(1-(isoxazole-3-carbonyl)piperidin-4-yl)-1H-imidazol-5-yl)imidazo[1,2-b]pyridazin-2-yl)isonicotinamide], the IC50 against CK1ε was determined as 2.47 nM; at CK1δ it was 0.393 nM.

For the compound `Cc1nc(-c2cccnc2)sc1C(=O)Nc1cn2nc(-c3c(-c4ccc(F)cc4)ncn3C3CCN(CCO)CC3)ccc2n1` [Compound 97, N-(6-(4-(4-fluorophenyl)-1-(1-(2-hydroxyethyl)piperidin-4-yl)-1H-imidazol-5-yl)imidazo [1,2-b]pyridazin-2-yl)-4-methyl-2-(pyridin-3-yl) thiazole-5-carboxamide], the IC50 at CK1ε came out at 0.095 nM; against CK1δ, 0.034 nM.

`Cc1nc(-c2cccnc2)sc1C(=O)Nc1cn2nc(-c3c(-c4ccc(F)cc4)ncn3C3CCN(CCC(F)(F)F)CC3)ccc2n1` [Compound 98, N-(6-(4-(4-fluorophenyl)-1-(1-(3,3,3-trifluoropropyl)piperidin-4-yl)-1H-imidazol-5-yl)imidazo [1,2-b]pyridazin-2-yl)-4-methyl-2-(pyridin-3-yl)thiazole-5-carboxamide]: the IC50 at CK1ε worked out at 3.88 nM; at CK1δ it was 0.268 nM.

Regarding `Cc1nc(-c2cccnc2)sc1C(=O)Nc1cn2nc(-c3c(-c4ccc(F)cc4)ncn3C3CCN(C[C@H](O)C(F)(F)F)CC3)ccc2n1` [Compound 99, (S)—N-(6-(4-(4-fluorophenyl)-1-(1-(3,3,3-trifluoro-2-hydroxypropyl)piperidin-4-yl)-1H-imidazol-5-yl)imidazo[1,2-b]pyridazin-2-yl)-4-methyl-2-(pyridin-3-yl)thiazole-5-carboxamide], the figures for the IC50 against CK1ε and against CK1δ were 1.26 nM and 0.329 nM, respectively.

For `Cc1nc(-c2cccnc2)sc1C(=O)Nc1cn2nc(-c3c(-c4ccc(F)cc4)ncn3C3CCN(CC(N)=O)CC3)ccc2n1` [Compound 100, N-(6-(1-(1-(2-amino-2-oxoethyl)piperidin-4-yl)-4-(4-fluorophenyl)-1H-imidazol-5-yl)imidazo[1,2-b]pyridazin-2-yl)-4-methyl-2-(pyridin-3-yl) thiazole-5-carboxamide], the concentration for half-maximal inhibition (IC50) against CK1ε turned out to be 0.128 nM; against CK1δ, 0.091 nM.

As to `Cc1nc(-c2cccnc2)sc1C(=O)Nc1cn2nc(-c3c(-c4ccc(F)cc4)ncn3C3CCN(C(=O)c4ccon4)CC3)ccc2n1` [Compound 101, N-(6-(4-(4-fluorophenyl)-1-(1-(isoxazole-3-carbonyl)piperidin-4-yl)-1H-imidazol-5-yl)imidazo[1,2-b]pyridazin-2-yl)-4-methyl-2-(pyridin-3-yl)thiazole-5-carboxamide], the IC50 stood at 1.24 nM at CK1ε and 0.334 nM on CK1δ.

For `Cc1nc(-c2cccnc2)sc1C(=O)Nc1cn2nc(-c3c(-c4ccc(F)cc4)ncn3C3CCN(C(=O)CC(F)(F)F)CC3)ccc2n1` [Compound 102, N-(6-(4-(4-fluorophenyl)-1-(1-(3,3,3-trifluoropropanoyl)piperidin-4-yl)-1H-imidazol-5-yl)imidazo [1,2-b]pyridazin-2-yl)-4-methyl-2-(pyridin-3-yl)thiazole-5-carboxamide], the results for the IC50 against CK1ε and at CK1δ were 0.484 nM and 0.243 nM, respectively.

Regarding `O=C(Nc1cn2nc(-c3c(-c4ccc(F)cc4)ncn3C3CCNCC3)ccc2n1)c1ccnc(N2CCOCC2)c1` [Compound 106, N-(6-(4-(4-fluorophenyl)-1-(piperidin-4-yl)-1H-imidazol-5-yl)imidazo[1,2-b]pyridazin-2-yl)-2-morpholinoisonicotinamide], the IC50 at CK1ε is 3.12 nM; against CK1δ it was 0.732 nM.

Regarding `O=C(Nc1cn2nc(-c3c(-c4ccc(F)cc4)ncn3C3CCN(CCC(F)(F)F)CC3)ccc2n1)c1ccnc(N2CCOCC2)c1` [Compound 107, N-(6-(4-(4-fluorophenyl)-1-(1-(3,3,3-trifluoropropyl)piperidin-4-yl)-1H-imidazol-5-yl)imidazo[1,2-b]pyridazin-2-yl)-2-morpholinoisonicotinamide], the results for the IC50 against CK1ε and against CK1δ were 1.92 nM and 0.467 nM, respectively.

On to `O=C(Nc1cn2nc(-c3c(-c4ccc(F)cc4)ncn3C3CCN(C(=O)CC(F)(F)F)CC3)ccc2n1)c1ccnc(N2CCOCC2)c1` [Compound 108, N-(6-(4-(4-fluorophenyl)-1-(1-(3,3,3-trifluoropropanoyl)piperidin-4-yl)-1H-imidazol-5-yl)imidazo[1,2-b]pyridazin-2-yl)-2-morpholinoisonicotinamide], for which the values for the IC50 against CK1ε and against CK1δ were 3.3 nM and 0.306 nM, respectively.

As to `CN1CCC(n2cnc(-c3ccc(F)cc3)c2-c2ccc3nc(NC(=O)c4ccnc5ccccc45)cn3n2)CC1` [Compound 110, N-(6-(4-(4-fluorophenyl)-1-(1-methylpiperidin-4-yl)-1H-imidazol-5-yl)imidazo[1,2-b]pyridazin-2-yl)quinoline-4-carboxamide], the values for the IC50 at CK1ε and at CK1δ were 3.27 nM and 0.65 nM, respectively.

Regarding `NC(=O)CN1CCC(n2cnc(-c3ccc(F)cc3)c2-c2ccc3nc(NC(=O)c4ccnc5ccccc45)cn3n2)CC1` [Compound 112, N-(6-(1-(1-(2-amino-2-oxoethyl)piperidin-4-yl)-4-(4-fluorophenyl)-1H-imidazol-5-yl)imidazo[1,2-b]pyridazin-2-yl)quinoline-4-carboxamide], the values for the concentration for half-maximal inhibition (IC50) against CK1ε and against CK1δ were 0.886 nM and 0.494 nM, respectively.

Take `N#CCCN1CCC(n2cnc(-c3ccc(F)cc3)c2-c2ccc3nc(NC(=O)c4ccnc5ccccc45)cn3n2)CC1` [Compound 113, N-(6-(1-(1-(2-cyanoethyl)piperidin-4-yl)-4-(4-fluorophenyl)-1H-imidazol-5-yl)imidazo[1,2-b]pyridazin-2-yl)quinoline-4-carboxamide]: the IC50 against CK1ε was determined as 1.51 nM; at CK1δ it was 0.438 nM.

In the case of `O=C(Nc1cn2nc(-c3c(-c4ccc(F)cc4)ncn3C3CCN(CCC(F)(F)F)CC3)ccc2n1)c1cncs1` [Compound 115, N-(6-(4-(4-fluorophenyl)-1-(1-(3,3,3-trifluoropropyl)piperidin-4-yl)-1H-imidazol-5-yl)imidazo[1,2-b]pyridazin-2-yl)thiazole-5-carboxamide], the values for the IC50 against CK1ε and on CK1δ were 3.88 nM and 0.159 nM, respectively.

(Values after patent US9556179B2 (BRISTOL-MYERS SQUIBB COMPANY, priority 2012, dated 2017).)
